Assays:
[1] = Cytotoxicity against human Bre04 cells; assay type: functional
[2] = Cytotoxicity against human Lu04 cells; assay type: functional
[3] = Cytotoxicity against human N04 cells; assay type: functional
[4] = Inhibition of alpha-amylase
[5] = target: Sucrase-isomaltase, intestinal (Homo sapiens, UniProt P14410); assay: Inhibition of sucrase
Maltase-glucoamylase = Maltase-glucoamylase (Homo sapiens, UniProt O43451); assay: Inhibition of maltase
Maltase-glucoamylase, sequence (O43451 whole entry): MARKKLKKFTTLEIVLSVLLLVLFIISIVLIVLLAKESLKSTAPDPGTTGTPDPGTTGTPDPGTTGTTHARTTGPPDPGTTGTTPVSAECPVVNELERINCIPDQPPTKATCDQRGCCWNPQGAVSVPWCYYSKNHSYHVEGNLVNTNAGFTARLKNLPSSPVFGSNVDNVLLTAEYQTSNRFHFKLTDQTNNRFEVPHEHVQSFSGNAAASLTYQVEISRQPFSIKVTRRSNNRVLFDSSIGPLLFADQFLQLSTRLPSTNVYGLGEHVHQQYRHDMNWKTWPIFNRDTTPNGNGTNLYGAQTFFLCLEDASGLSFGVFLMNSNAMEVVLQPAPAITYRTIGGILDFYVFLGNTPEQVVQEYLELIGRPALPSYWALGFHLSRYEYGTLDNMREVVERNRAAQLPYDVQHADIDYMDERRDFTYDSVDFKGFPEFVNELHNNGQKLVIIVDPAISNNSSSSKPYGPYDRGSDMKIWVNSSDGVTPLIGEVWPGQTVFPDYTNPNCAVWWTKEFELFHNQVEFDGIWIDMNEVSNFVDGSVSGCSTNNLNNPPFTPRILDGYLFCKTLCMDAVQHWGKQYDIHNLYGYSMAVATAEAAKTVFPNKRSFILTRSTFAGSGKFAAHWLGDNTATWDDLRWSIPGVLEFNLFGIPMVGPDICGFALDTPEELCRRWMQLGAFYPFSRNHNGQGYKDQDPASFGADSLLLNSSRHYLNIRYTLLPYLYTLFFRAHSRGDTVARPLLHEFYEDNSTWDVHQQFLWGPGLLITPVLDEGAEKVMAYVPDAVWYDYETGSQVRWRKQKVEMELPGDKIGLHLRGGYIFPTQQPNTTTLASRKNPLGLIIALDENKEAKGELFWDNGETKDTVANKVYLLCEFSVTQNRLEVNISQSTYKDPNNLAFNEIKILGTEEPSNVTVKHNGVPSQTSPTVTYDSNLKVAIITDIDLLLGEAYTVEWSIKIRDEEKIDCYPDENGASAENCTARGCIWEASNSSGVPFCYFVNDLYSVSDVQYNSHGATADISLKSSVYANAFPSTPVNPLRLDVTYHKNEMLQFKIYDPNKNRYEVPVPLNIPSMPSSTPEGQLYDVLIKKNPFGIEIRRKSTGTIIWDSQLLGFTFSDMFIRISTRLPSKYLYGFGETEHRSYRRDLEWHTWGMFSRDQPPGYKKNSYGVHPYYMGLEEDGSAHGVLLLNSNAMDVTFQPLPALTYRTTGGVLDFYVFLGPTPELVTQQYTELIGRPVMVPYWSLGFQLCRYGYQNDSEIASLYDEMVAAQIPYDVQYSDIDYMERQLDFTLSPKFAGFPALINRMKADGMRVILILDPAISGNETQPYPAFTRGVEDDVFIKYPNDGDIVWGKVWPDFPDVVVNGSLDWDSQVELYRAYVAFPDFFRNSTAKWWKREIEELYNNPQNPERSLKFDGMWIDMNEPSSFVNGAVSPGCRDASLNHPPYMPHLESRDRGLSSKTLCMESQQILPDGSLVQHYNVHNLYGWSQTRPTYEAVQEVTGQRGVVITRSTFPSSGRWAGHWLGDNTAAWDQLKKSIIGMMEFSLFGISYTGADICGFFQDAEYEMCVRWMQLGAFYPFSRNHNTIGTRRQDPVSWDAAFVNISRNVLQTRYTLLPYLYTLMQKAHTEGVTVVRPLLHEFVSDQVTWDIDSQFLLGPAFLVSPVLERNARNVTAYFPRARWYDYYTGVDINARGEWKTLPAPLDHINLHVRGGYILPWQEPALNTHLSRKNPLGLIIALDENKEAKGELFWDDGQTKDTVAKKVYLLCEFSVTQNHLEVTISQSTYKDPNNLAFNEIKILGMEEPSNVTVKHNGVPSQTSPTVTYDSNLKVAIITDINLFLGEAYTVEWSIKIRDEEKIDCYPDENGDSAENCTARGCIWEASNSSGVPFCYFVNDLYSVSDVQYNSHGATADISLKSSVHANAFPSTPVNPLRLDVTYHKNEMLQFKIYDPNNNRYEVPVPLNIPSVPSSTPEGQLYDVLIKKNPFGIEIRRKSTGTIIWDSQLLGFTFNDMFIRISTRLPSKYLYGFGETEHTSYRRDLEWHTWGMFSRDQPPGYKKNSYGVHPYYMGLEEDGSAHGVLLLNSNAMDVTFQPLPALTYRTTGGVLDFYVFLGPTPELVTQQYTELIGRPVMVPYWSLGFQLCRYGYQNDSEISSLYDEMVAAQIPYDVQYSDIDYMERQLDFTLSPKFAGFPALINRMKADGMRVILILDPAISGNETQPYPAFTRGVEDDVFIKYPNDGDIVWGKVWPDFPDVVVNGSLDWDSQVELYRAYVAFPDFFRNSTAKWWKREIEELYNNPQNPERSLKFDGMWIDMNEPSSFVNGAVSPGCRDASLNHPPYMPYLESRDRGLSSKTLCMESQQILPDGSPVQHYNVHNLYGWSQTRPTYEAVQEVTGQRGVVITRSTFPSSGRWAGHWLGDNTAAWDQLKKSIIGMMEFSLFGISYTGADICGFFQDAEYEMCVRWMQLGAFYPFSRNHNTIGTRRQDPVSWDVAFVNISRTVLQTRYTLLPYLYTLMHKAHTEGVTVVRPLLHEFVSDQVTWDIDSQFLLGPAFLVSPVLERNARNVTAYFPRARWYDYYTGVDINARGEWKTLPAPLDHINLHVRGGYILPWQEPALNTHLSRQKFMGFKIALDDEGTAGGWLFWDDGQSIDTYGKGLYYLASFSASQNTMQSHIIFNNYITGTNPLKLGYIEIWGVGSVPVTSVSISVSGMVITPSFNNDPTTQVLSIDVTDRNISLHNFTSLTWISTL

Sucrase-isomaltase, intestinal, sequence (P14410 2-1007 limits assumed): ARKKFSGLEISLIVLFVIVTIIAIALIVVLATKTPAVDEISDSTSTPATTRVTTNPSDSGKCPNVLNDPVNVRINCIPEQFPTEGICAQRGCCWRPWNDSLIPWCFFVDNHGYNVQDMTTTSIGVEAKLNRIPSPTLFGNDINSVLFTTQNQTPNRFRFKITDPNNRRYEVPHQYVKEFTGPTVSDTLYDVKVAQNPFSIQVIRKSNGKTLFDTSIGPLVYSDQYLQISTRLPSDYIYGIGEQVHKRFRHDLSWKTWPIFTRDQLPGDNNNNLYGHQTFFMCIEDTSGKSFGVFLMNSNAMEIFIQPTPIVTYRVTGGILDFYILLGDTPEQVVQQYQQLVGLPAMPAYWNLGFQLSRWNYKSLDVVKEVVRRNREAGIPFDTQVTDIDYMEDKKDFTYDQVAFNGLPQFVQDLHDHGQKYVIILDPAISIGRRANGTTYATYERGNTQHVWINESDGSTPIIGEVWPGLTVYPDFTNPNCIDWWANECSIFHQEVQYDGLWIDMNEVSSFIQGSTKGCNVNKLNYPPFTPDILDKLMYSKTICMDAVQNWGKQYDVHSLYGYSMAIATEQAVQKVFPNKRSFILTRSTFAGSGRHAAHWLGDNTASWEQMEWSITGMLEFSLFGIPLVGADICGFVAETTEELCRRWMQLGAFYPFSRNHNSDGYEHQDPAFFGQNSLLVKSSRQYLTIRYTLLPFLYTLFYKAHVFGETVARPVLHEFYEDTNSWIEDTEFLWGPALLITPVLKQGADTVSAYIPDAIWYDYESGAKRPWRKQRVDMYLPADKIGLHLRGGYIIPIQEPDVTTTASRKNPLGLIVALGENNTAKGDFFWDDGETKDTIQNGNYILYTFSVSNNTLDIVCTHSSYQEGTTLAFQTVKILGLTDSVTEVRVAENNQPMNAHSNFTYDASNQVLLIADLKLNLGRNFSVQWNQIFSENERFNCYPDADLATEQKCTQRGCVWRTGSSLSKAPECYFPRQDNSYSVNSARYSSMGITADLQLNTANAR
Sucrase-isomaltase, intestinal, sequence (P14410 1008-1827 limits assumed): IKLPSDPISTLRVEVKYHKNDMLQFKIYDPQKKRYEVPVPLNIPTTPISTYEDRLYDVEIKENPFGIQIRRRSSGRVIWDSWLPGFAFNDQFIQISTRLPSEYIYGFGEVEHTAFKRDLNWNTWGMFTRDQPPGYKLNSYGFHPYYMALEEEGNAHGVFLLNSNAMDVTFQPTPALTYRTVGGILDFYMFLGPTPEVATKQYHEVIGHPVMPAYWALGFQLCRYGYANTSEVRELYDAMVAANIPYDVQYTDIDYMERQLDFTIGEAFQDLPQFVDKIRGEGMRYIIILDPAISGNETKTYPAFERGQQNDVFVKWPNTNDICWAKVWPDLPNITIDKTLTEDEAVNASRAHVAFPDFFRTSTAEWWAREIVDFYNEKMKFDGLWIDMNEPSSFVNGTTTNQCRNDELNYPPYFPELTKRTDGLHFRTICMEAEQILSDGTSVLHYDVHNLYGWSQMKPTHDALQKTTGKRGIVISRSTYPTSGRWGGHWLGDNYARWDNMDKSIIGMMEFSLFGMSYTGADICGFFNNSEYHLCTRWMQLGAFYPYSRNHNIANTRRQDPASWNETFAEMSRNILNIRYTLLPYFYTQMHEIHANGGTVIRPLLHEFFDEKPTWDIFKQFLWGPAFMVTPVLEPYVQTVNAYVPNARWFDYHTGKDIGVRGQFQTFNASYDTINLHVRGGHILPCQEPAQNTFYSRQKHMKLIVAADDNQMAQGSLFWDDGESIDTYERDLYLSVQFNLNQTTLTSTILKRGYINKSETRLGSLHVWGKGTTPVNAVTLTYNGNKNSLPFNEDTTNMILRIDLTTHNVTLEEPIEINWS

COc1cc(-c2cc3c(c(=O)o2)C[C@]2(O)[C@@]4(C)C(=O)C=CC(C)(C)[C@]4(O)CC[C@@]2(C)O3)cc2c1OCO2 [TERRITREM A]
> 196 µM: IC50 [5] | IC50 (Maltase-glucoamylase)
> 100 µg/mL: GI50 [1] | GI50 [2] | GI50 [3] | IC50 [4]

C=C1C[C@H]2[C@@](C)(C(=O)C(O)=C3C(C)(C)C(=O)CC[C@@]32C)[C@@H]2C(=O)O[C@@](C)(C(=O)OC)C(=O)[C@@]12C [TERRETONIN A]
> 100 µg/mL: GI50 [1] | GI50 [2] | GI50 [3] | IC50 [4]
> 212 µM: IC50 [5] | IC50 (Maltase-glucoamylase)

C=C1C[C@]2(O)[C@@]3(C)CCC(=O)C(C)(C)C3=C(O)C(=O)[C@@]2(C)[C@@H]2C(=O)O[C@@](C)(C(=O)OC)C(=O)[C@@]12C [TERRETONIN]
> 205 µM: IC50 [5] | IC50 (Maltase-glucoamylase)
> 100 µg/mL: GI50 [1] | GI50 [2] | GI50 [3] | IC50 [4]
